Patent US20240285808A1, “MOLECULAR PROBES FOR IN VIVO DETECTION OF ALDEHYDES” (The General Hospital Corporation, priority 2021, published 2024)
“And” between values parts separate entries of the source, which are not always exact repeats. Equal values may be shown once.

Columns and labels:
[1] = system: liver of CCl4 injured mice; type: in vivo, mouse; conditions: for ΔCNR (liver to muscle): 100 μmol/kg i.v., group mean; for ΔCNR of liver, pair-wise comparison: individual mice ID 1-6
Method: CCl4 Liver Fibrosis Model:
Male C57BL/6 mice (Charles River Laboratories, Wilmington, MA) were treated with carbon tetrachloride for 12 weeks (0.1 ml of 20% CCl4 in olive oil the first week, 30% the second week, and 40% from weeks 3-12) by oral gavage, 2-3 times per week. Control mice were fed vehicle (olive oil) only.
A total of 53 C57BL/6 mice were included to study CCl4 induced hepatic fibrosis: • A. CCl4 for 12 weeks (n=20). Each mouse was imaged with probe 1 and then imaged again 24 hours later with probe 2. Probe 1 and Probe 2 were randomly chosen from GdDOTA, GdCHyd, Mn-12, Gd-9 and Gd-10. • B. Vehicle treated control (n=20). Each mouse was imaged with probe 1 and then imaged again 24 hours later with probe 2. Probe 1 and Probe 2 were randomly chosen from GdDOTA, Mn-12, GdCHyd, Gd-9, Gd-10. • C. CCl4 for 12 weeks (n=3, another 3 pair-wise comparison have been done in group A). Each mouse was imaged with probe 1 and then imaged again 24 hours later with probe 2. […] Each mouse was imaged with probe 1 and then imaged again 24 hours later with probe 2. Probe 1 and Probe 2 were randomly choosing from Gd-9 and Gd-10. • E. CCl4 for 12 weeks (n=3). Each mouse was imaged with Gd-9. After 24 hours, the same mouse was first injected with 1000 μmol/kg of Yb-9 and then injected with 100 μmol/kg of Gd-9 15 min after the Yb-9 injection.
Animals were anesthetized with isoflurane (1-2%) and placed in a specially designed cradle with body temperature maintained at 37° C. The inhaled isoflurane level was adjusted to maintain a respiration rate of 60±5 breaths per minute. The tail vein was cannulated for intravenous (i.v.) delivery of the contrast agent while the animal was positioned in the scanner. Imaging was performed at 4.7 T using a small bore animal scanner with a custom-built volume coil. Mice were imaged with a dose of 100 μmol/kg from 30 mM stock solution of Gd or Mn complex.
For mice liver imaging, a series of baseline images (3D T1 weighted fast low angle shot magnetic resonance imaging (FLASH)) were first acquired (repetition time/echo time=15/2 ms; flip angle, 30°; field of view, 48×30 mm^2; matrix size, […]; slice thickness, 0.25 mm; acquisition time, 3 minutes 20 seconds), then a bolus of Gd or Mn complex was administered i.v. and imaging performed for a period of 45 min p.i. with the repetition acquisition of 3D T1 weighted FLASH sequences. Following the imaging session, animals were sacrificed (75 min p.i.) and liver tissue was subjected to histopathologic analysis.
For liver imaging analysis, a region of interest (ROI) was manually traced encompassing the liver parenchyma while avoiding major blood vessels. A second ROI was placed on the dorsal muscle visible in the same image slice to quantify the signal intensity in the muscle for comparison. Seven ROIs were placed in the field of view without any tissue (air) to measure the variation in background signal. More than 20 axial slices per mouse across the entire liver were analyzed in this fashion. […] Contrast to noise ratio (CNR) was calculated by measuring the difference in signal intensity (SI) between liver and muscle and normalizing to the standard deviation of the signal in the air, eq 21. ΔCNR was calculated by subtracting CNR measured prior to probe injection (CNRPre) from CNR measured after injection (CNRPost), eq 22. […]

[2] = Biodistribution of ^nat/52Mn-based probes in naïve mice; type: in vivo, mouse; conditions: 24 h post injection
Method: Example 32. Radiolabeling of Compounds 15-18 with ^52Mn and Preparation of ^52/natMn Complex
^52MnCl2 (5 mCi) was received from the cyclotron facility at the Alabama at Birmingham and diluted to 500 μL with 0.1 M HCl. Solution of […] (50 μL, 1.0 mg in 1 mL of 1.5 M NaOAc buffer, pH 4.5) was mixed with 50 μL of ^52MnCl2. The reaction mixture was kept at room temperature for 15 min and diluted with 200 μL of sterile PBS. The injected dose of ^52/natMn complex was obtained by mixing solution of ^52Mn labeled Compound 15-18 with stock solution of ^natMn labeled Compound 15-18 (^natMn final concentration: 30 mM).
Bleomycin-injured mice at 14 days after injury were sedated and then injected with Compound 19, Compound 20, Gd-CHyd (Akam, E. A., et al. Improving the reactivity of hydrazine-bearing MRI probes for in vivo imaging of lung fibrogenesis. Chemical Science 11, 224-231 (2020)) formulated to contain an equal concentration of Eu-DOTA as a non-binding control probe. Animals were then euthanized at 30 minutes after injection. The lungs were harvested separately, along with blood, tail and liver. Each sample was analyzed by ICP-MS for gadolinium and europium content, and the lungs were also assessed for hydroxyproline content. Selectivity is reported as the ratio of Gd to Eu. All animals were dosed via tail vein injection at 100 nmol/g body weight from 30 mM solutions of gadolinium probes with 30 mM Eu-DOTA as determined by ICP-MS. For PET probes, Compounds 1-8 were radiolabeled with either ^68Ga or ^64Cu and the dose was delivered as a bolus injection through tail vein. Animals were euthanized 90 min post injection and their organs and tissues were harvested and counted using a gamma counter. For an imaging study with a PET tracer, animals were injected inside PET/MRI scanner and scanned dynamically for 60 min under anesthesia. The animals were euthanized 90 min post injection and their organs and tissues were counted using a gamma counter. The biodistribution of Mn-15, Mn-16, Mn-17, and Mn-18 was determined by injecting a mixture of ^52/nat complex into naïve mice and activity in each tissue were measured 24 hours post injection.

[3] = CCl4 injured mice, 45 min post injection

Structure (SMILES) | fold higher ΔCNR compared to Gd-CHyd (monobinder) ([1]; CCl4 injured mice, 45 min p.i.) [fold] | ΔCNR (liver to muscle) [1, 3] | ΔCNR of liver, With blocking ([1]; CCl4 injured mice, 45 min post injection, blocking dose of Yb-9 (1000 μmol/kg) 15 min before, individual mice ID 1-3) | ΔCNR of liver, Without blocking ([1]; CCl4 injured mice, 45 min post injection, individual mice ID 1-3) | ΔCNR of liver, pair-wise comparison [1, 3] | Biodistribution, Blood [2] [% ID/g] | Biodistribution, Bone [2] [% ID/g] | Biodistribution, Brain [2] [% ID/g] | Biodistribution, Heart [2] [% ID/g] | Biodistribution, Intestine [2] [% ID/g] | Biodistribution, Kidney [2] [% ID/g] | Biodistribution, Liver [2] [% ID/g] | Biodistribution, Lung [2] [% ID/g] | Biodistribution, Muscle [2] [% ID/g] | Biodistribution, Skin [2] [% ID/g] | Biodistribution, Spleen [2] [% ID/g] | Biodistribution, Stomach [2] [% ID/g] | fold higher DCNR in CCl4 treated vs vehicle treated mice ([1]; 20 minutes post injection) [fold]
NN1CCN(C(=O)CCC(C(=O)[O-])N2CCN(CC(=O)[O-])CCN(CC(=O)[O-])CCN(C(CCC(=O)N3CCN(N)CC3)C(=O)[O-])CC2)CC1.[Gd+3] (stereo not drawn) [Gd-9, cis-1,4-Gd-(CHyd)2] | 10 | 2.2±0.8 and 2.2 ± 0.9 | 0.1 (2×) and 0.3 | 3.6 and 2.7 and 3.0 | 1.9 (2×) and 3.2 and 1.3 and 2.1 and 1.5 |  |  |  |  |  |  |  |  |  |  |  |  | 
NN1CCN(C(=O)CCC(C(=O)[O-])N2CCN(CC(=O)[O-])CCN(C(CCC(=O)N3CCN(N)CC3)C(=O)[O-])CCN(CC(=O)[O-])CC2)CC1.[Gd+3] (stereo not drawn) [Gd-10, trans-1,7-Gd-(CHyd)2] |  | 1.3±0.4 and 1.5 ± 0.9 |  |  | 1.3 and 2.3 and 1.2 and 0.9 and 1.4 and 1.0 |  |  |  |  |  |  |  |  |  |  |  |  | 
NNC(CCC(=O)NCCCN1CCN(CC(=O)[O-])Cc2cccc(n2)CN(CC(=O)[O-])CC1)C(=O)O.[Mn+2] (stereo not drawn) [Mn-15] |  | 1.2 ± 0.2 |  |  |  | 0.0018 | 0.0385 | 0.0156 | 0.0532 | 0.0665 | 0.7021 | 0.2186 | 0.1312 | 0.0154 | 0.0719 | 0.0843 | 0.0759 | 3
NOC(CCC(=O)NCCCN1CCN(CC(=O)[O-])Cc2cccc(n2)CN(CC(=O)[O-])CC1)C(=O)O.[Mn+2] (stereo not drawn) [Mn-16] |  |  |  |  |  | 0.0051 | 0.1378 | 0.0275 | 0.1579 | 0.1330 | 0.9664 | 0.3950 | 0.4469 | 0.0669 | 0.9457 | 0.1978 | 0.1638 | 
NNCC(=O)NCCCN1CCN(CC(=O)[O-])Cc2cccc(n2)CN(CC(=O)[O-])CC1.[Mn+2] [Mn-17] |  |  |  |  |  | 0.0020 | 0.0414 | 0.0170 | 0.0675 | 0.0556 | 0.5387 | 0.2125 | 0.1954 | 0.0196 | 0.0925 | 0.0965 | 0.0681 | 
CN(C)C(CCC(=O)NCCCN1CCN(CC(=O)[O-])Cc2cccc(n2)CN(CC(=O)[O-])CC1)C(=O)O.[Mn+2] (stereo not drawn) [Mn-18] |  |  |  |  |  | 0.0013 | 0.0227 | 0.0145 | 0.0364 | 0.0355 | 0.5290 | 0.1833 | 0.0599 | 0.0132 | 0.0243 | 0.0616 | 0.0477 | 
